Test [1] has as its system Phakopsora pachyrhizi. Nature of the test: Leaf disc test with Phakopsora pachyrhizi on glyphosate sensitive soybean, leaf disks treated (Example 4). In kind it is in vivo. An excerpt: (§1) A synergistic effect exists whenever the action of an active ingredient combination is greater than the action expected from the effect of the individual components.
(§2) The action to be expected (E) for a given active ingredient combination obeys the so-called COLBY formula and can be calculated as follows (COLBY, S. R. “Calculating synergistic and antagonistic responses of herbicide combination”. Weeds, Vol. 15, pages 20-22; 1967):
(§3) ppm=milligrams of active ingredient (=a.i.) per litre of spray mixture X=% action by active ingredient I using p ppm of active ingredient Y=% action by active ingredient II using q ppm of active ingredient.
(§4) According to Colby, the expected (additive) action of active ingredients I+II using p+q ppm of active ingredient is
(§5) If the action actually observed (O) is greater than the expected action (E), then the action of the combination is superadditive, i.e. there is a synergistic effect.
A series of leaf disc tests were conducted to show the effects of tank mixtures of glyphosate and pesticides or plant activators on Asian soybean rust. The soybean variety tested was brand Williams82 glyphosate sensitive soybean. The leaf source for the testing was the first trifoliate leaf. Six (6) repetitions for each formulation and at each rate were conducted. Treatment of the leaf disks with the recited active ingredients was conducted 4 weeks after planting. The leaves were inoculated with Phakopsora pachyrhizi (Asian soybean rust (ASR)) one (1) day after treatment. Evaluation of the leaf was conducted ten (10) days after inoculation and the mean percent infestation of the six repetitions is reported in Tables 8-11.
As glyphosate source Touchdown® HiTech or Zapp® QI was used. The fungicides were used as commercial formulations: Bion® WG50 plant activator comprising acibenzolar-S-methyl (Syngenta Corp.), Opus® SC125 fungicide comprising epoxiconazole commercially (BASF AG), Tilt® EC250 fungicide comprising propiconazole (Syngenta Corp.), Quadris® SC250 fungicide comprising azoxystrobin (Syngenta Corp.). The rates of the active ingredients used in the tests are set in Tables 8-11 as mg active ingredient (a.i.)/L.

For test [2], the system named is Phakopsora pachyrhizi. Nature of the test: Application on whole plants: leaf disc test with Phakopsora pachyrhizi on glyphosate sensitive soybean (Example 5). Format: in vivo.
Source text: as §1, §2, §3, §4, §5
A series of leaf disc tests were conducted to show the effects of tank mixtures of glyphosate and pesticides or plant activators on Asian soybean rust. The soybean variety tested was brand Williams82 glyphosate sensitive soybean. The leaf source for the testing was the first trifoliate leaf. Six (6) repetitions for each formulation and at each rate were conducted. Treatment of whole plants with the recited active ingredients was conducted 4 weeks after planting. After application, leaf disks were cut and inoculated with Phakopsora pachyrhizi (Asian soybean rust (ASR)) one (1) day after treatment. Evaluation of the leaf was conducted ten (10) days after inoculation and the mean percent infestation of the six repetitions is reported in Tables 12-14.
As glyphosate source Touchdown® HiTech or Zapp® QI was used. The fungicides were used as commercial formulations: Cantus® WG50 fungicide comprising boscalid (BASF AG), Quadris® SC250 fungicide and Bion® WG50 plant activator comprising acibenzolar-S-methyl. The rates of the active ingredients used in the tests are set in Tables 12-14 as g active ingredient (a.i.)/hectare (ha). The spray volume was 200 l/ha.

[3] abbreviates: Glyphosate TD HiTech SL523 2.5 mg a.i./L, Table 9 (check 77).
The mark [4] stands for this setting: Glyphosate TD HiTech SL523 2.5 mg a.i./L, Table 11 (check 80).
Setting [5] is: Glyphosate TD HiTech SL523 7.4 mg a.i./L, Table 11 (check 80).
The mark [6] stands for this setting: Glyphosate TD HiTech SL523 7.4 mg a.i./L, Tables 9-10 (check 77).
[7] abbreviates: Glyphosate TD HiTech SL523 22.2 mg a.i./L.
Setting [8] is: Glyphosate Zapp QI SL500 22.2 mg a.i./L.
The mark [9] stands for this setting: Glyphosate Zapp QI SL500 66.7 mg a.i./L.
[10] abbreviates: Glyphosate TD HiTech SL523 200 g a.i./ha.
[11] abbreviates: Glyphosate TD HiTech SL523 500 g a.i./ha.
Setting [12] is: Glyphosate TD HiTech SL523 600 g a.i./ha.

With `O=C(O)CNCP(=O)(O)O` [Glyphosate, glyphosate], the Activity observed % in the test on Phakopsora pachyrhizi [1] (setting [3]) turned out to be 0%; with Phakopsora pachyrhizi [1] (setting [4]), 8%; with Phakopsora pachyrhizi [1] (setting [5]), 0%; in the test on Phakopsora pachyrhizi [1] (setting [6]) it was 0%; in the test on Phakopsora pachyrhizi [1] (setting [7]), 0%; with Phakopsora pachyrhizi [1] (setting [8]) it was 1%. The Activity observed % in the test with Phakopsora pachyrhizi [1] (setting [9]) is 1%; with Phakopsora pachyrhizi [2] (setting [10]) it was 7%; with Phakopsora pachyrhizi [2] (setting [11]) it was 10%; in the test on Phakopsora pachyrhizi [2] (setting [12]), 19%. The Leaf attack % is given as 80% with Phakopsora pachyrhizi [1] (setting [3]); 74% with Phakopsora pachyrhizi [1] (setting [4]); 80% in the test on Phakopsora pachyrhizi [1] (setting [5]); 80% in the test on Phakopsora pachyrhizi [1] (setting [6]); 80% in the test on Phakopsora pachyrhizi [1] (setting [7]); 68% in the test on Phakopsora pachyrhizi [1] (setting [8]). Also, the Leaf attack % was 68% in the test with Phakopsora pachyrhizi [1] (setting [9]), 58% in the test with Phakopsora pachyrhizi [2] (setting [10]), 56% in the test on Phakopsora pachyrhizi [2] (setting [11]) and 50% in the test with Phakopsora pachyrhizi [2] (setting [12]).

Values taken from patent publication US20090023687A1, “Method for Controlling Phytopathogenic Organisms” (SYNGENTA CROP PROTECTION, INC., priority 2005, published 2009).
